Measurements reported in PMC7529758, “Over-activation of a nonessential bacterial protease DegP as an antibiotic strategy” (Communications Biology, 2020).
*1 amine or outer side, *2 acyl side, *3 side chain or, on linkers, in order; H or OH if unused. Where a SMILES comes first, the peptide text is derived from it. Bridges are numbered along the chain shown (N, C = ends). Roman numbers before positions name the chains, in order. Where no end group is shown, it is not given here. The star is where a group is joined. TBMB = c1c(C[*:1])cc(C[*:3])cc1C[*:2]; mXylylene = c1cc(C[*:1])cc(C[*:2])c1; Bn = c1ccc(C*)cc1

B1: DegP^S210A (enzyme, E. coli, UniProt P0C0V0 27-474, looked up)
chain: AETSSATTAQQMPSLAPMLEKVMPSVVSINVEGSTTVNTPRMPRNFQQFFGDDSPFCQEGSPFQSSPFCQGGQGGNGGGQQQKFMALGSGVIIDADKGYVVTNNHVVDNATVIKVQLSDGRKFDAKMVGKDPRSDIALIQIQNPKNLTAIKMADSDALRVGDYTVAIGNPFGLGETVTSGIVSALGRSGLNAENYENFIQTDAAINRGNAGGALVNLNGELIGINTAILAPDGGNIGIGFAIPSNMVKNLTSQMVEYGQVKRGELGIMGTELNSELAKAMKVDAQRGAFVSQVLPNSSAAKAGIKAGDVITSLNGKPISSFAALRAQVGTMPVGSKLTLGLLRDGKQVNVNLELQQSSQNQVDSSSIFNGIEGAEMSNKGKDQGVVVNNVKTGTPAAQIGLKKGDVIIGANQQAVKNIAELRKVLDSKPSVLALNIQRGDSTIYLLMQ
notes: periplasmic protease DegP (HtrA family) of E. coli, active-site mutant S210A; In the crystals it resembles the dodecameric cage of 3OTP (two trimers in the asymmetric unit); also called DegP active-site mutant

Legend:
DegP^S210A [1] = molecular target: T1, DegP^S210A (Escherichia coli, UniProt P0C0V0, C83S/C95S/N322C/S236A); experiment: FRET assay of DegP cage assembly; format: biochemical
T1 construct: pET22b-degP(full length; C57S/C69S/N296C/S210A)_6His; 6His (C); made in house; host or cells: E. coli (inferred from the pET plasmid)
Experimental: Fluorescence resonance energy transfer (FRET) assay was performed as previously described[14],[22]. Equimolar amounts of fluorescence donor- and acceptor-labeled DegP^S210A (total 0.1, 1 or 3 μM) was mixed in a buffer containing 50 mM sodium phosphate (pH 8) and 100 mM NaCl. Two-fold serial dilutions of activators were added to the DegP mixtures. Alexa Fluor 555 C2-maleinide and 647 C2-maleinide (life technologies) were used as fluorescence dyes. Cage assembly of DegP was monitored by increased FRET ratio using the micro-plate reader (excitation 520 nm, emission 570 or 670 nm, Infinite M200pro, Tecan). Assays were performed in triplicates.

DegP^S210A [2] = molecular target: T2, DegP^S210A (Escherichia coli, UniProt P0C0V0, S236A); experiment: Isothermal titration calorimetry; format: binding; conditions: ITC; for Kd: Kd (M); for binding stoichiometry N: 298 K, single binding site model, DMB_CYYKI 0–2 molar ratio
T2 construct: pET22b-degP(full length; S210A)_6His; 6His (C); made in house
Experimental: ITC experiments were performed using Affinity ITC instruments (TA Instruments, New Castle, DE, USA) at 298 K. DegP^S210A mutant (18.10 μM for 0–2 molar ratio and 109.33 μM for 0–0.4 molar ratio), which were prepared in a buffer containing 5 mM phosphate (pH 8.0) were degassed at 295 K prior to measurements. Using a micro-syringe, 2.5 μL of DMB_CYYKI (300 μM) was added at intervals of 200 s to the DegP solution in the cell with gentle stirring. As for other ligands, 2.5 μL of MMB_CYYKI (453 μM), TMB_CYYKI (218.46 μM) or 18–58 substrate peptide (80 μM) was added at intervals of 200 s to the DegP solution (27.33 μM, 37.45 μM, and 20 μM, respectively). Data were fitted to the single binding site model. In experiments with 0–2 and 0–2.6 molar ratio of DMB_CYYKI and MMB_CYYKI, respectively, the data with 0–0.3 molar ratio were excluded for the fitting.

E. coli imp4213 = experiment: microbe, parasite or virus in culture; format: cell-based, Escherichia coli
Experimental: The susceptibility of E. coli to activators was analyzed by determining the MICs. Two-fold serial dilutions of activators in LB broth were added to bacteria (OD600 = 0.1) in 96-well plates. Plates were incubated with shaking at 30 or 42 °C. After 12 h of incubation, the MIC was defined as the lowest concentration of the activator to inhibit the growth of bacteria by using a micro-plate reader (Absorbance 600 nm, Infinite M200pro, Tecan). The assay was performed in triplicates.

E.coli imp4213 strain = format: cell-based, Escherichia coli; conditions: 20 µg/ml alone; 12 h
Experimental: Time-kill experiment was performed by counting the viable bacteria at each time point. The E.coli imp4213 strain was cultured with streptomycin overnight and diluted 1:100 in fresh LB broth. When the OD600 value became 0.01, the activator was added at 2x MIC. The sample was incubated with shaking (180 rpm) at 30 °C or 42 °C, and aliquots were taken after 0, 1, 2, 4, 6, 8, 10, or 12 h. These aliquots were serially diluted (ten-fold) and plated on LB agar plates for colony counts. Experiments were performed in triplicates. The kill curves were plotted with the CFU/mL against time.
Experiments with cells in the stationary phase, however, were performed without dilution of the overnight culture.

[3] = molecular target: the molecule itself; experiment: crystal structure; DegP^S210A (198 µM) incubated with TMB_CYYKI (297 µM) in 5 mM phosphate pH 8.0 for 1 h at 295 K; hanging drop, PEG3350 10%, tacsimate 0.1 M pH 3.4; molecular replacement with 3OTP
DegP^S210A [4] = molecular target: T3, DegP^S210A (E. coli, UniProt P0C0V0 27-474, S210A); experiment: ITC
T3 sequence: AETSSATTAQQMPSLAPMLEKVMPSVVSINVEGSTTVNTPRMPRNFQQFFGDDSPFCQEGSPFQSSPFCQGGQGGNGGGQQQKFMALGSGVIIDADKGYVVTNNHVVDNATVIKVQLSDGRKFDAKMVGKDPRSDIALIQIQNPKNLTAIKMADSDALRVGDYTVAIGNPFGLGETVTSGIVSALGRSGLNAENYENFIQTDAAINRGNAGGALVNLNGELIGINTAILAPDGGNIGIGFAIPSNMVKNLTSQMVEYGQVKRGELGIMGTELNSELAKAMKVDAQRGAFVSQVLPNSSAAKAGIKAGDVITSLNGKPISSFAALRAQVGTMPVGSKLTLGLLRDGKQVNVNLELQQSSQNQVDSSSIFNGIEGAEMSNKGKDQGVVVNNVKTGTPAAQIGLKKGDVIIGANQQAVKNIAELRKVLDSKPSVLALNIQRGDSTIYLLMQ

DegP^S210A [5] = molecular target: B1; experiment: ITC; 298 K, 5 mM phosphate pH 8.0; compound or peptide injected into DegP^S210A in the cell; single binding site model; for DMB_CYYKI (0–2 molar ratio) and MMB_CYYKI (0–2.6) the data at 0–0.3 molar ratio were excluded from the fit; conditions: both partners purified
DegP^WT (E. coli) = molecular target: T4, DegP^WT (E. coli) (UniProt P0C0V0)
T4 sequence: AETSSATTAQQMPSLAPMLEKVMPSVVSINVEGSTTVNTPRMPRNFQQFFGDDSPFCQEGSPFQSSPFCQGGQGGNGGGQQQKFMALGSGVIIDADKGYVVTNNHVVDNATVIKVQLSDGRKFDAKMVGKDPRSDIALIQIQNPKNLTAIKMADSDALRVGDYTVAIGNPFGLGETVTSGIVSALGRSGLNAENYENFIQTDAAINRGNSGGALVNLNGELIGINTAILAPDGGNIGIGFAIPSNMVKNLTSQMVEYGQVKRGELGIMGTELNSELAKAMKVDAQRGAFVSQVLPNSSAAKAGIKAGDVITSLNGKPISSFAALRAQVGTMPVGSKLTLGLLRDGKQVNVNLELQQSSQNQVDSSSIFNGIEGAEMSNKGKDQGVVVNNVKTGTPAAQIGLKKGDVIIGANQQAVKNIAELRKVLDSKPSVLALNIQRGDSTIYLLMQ

DegP^S210A (E. coli) = DegP^S210A (E. coli) (UniProt P0C0V0); experiment: ITC; 298 K, 5 mM phosphate pH 8.0; compound or peptide injected into DegP^S210A in the cell; single binding site model; for DMB_CYYKI (0–2 molar ratio) and MMB_CYYKI (0–2.6) the data at 0–0.3 molar ratio were excluded from the fit
[6] = model Independent, DMB_CYYKI 0-2 molar ratio

T1 sequence (P0C0V0 27-474 C83S/C95S/S236A/N322C): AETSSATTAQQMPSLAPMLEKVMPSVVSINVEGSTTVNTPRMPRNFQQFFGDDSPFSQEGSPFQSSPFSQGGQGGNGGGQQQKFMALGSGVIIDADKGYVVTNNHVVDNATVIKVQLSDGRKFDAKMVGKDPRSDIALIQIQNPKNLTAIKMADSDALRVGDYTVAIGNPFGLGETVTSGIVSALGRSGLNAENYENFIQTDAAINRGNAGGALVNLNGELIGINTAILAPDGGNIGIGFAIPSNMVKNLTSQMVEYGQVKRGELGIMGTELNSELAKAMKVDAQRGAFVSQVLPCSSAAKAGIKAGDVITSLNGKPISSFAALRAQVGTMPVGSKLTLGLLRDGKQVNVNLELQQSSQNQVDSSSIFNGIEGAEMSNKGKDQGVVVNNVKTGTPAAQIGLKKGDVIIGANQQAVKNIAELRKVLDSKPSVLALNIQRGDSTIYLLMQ

Molecule: CC[C@H](C)[C@H](NC(=O)[C@H](CCCCN)NC(=O)[C@H](Cc1ccc(O)cc1)NC(=O)[C@H](Cc1ccc(O)cc1)NC(=O)[C@@H](N)CSCc1cccc(CSC[C@H](N)C(=O)N[C@@H](Cc2ccc(O)cc2)C(=O)N[C@@H](Cc2ccc(O)cc2)C(=O)N[C@@H](CCCCN)C(=O)N[C@H](C(=O)O)[C@@H](C)CC)c1)C(=O)O [DMB_CYYKI] (I: H-CYYKI-OH / II: H-CYYKI-OH; linker I:1-II:1 via mXylylene)
- EC50 (DegP^S210A [1]): 1100 nM
- Kd (DegP^S210A [2]; model Independent, 0-0.4 molar ratio): 4.62e-07 M
- Kd (DegP^S210A [2]; [6]): 2.39e-07 M

Molecule: CC[C@H](C)[C@H](NC(=O)[C@H](CCCCN)NC(=O)[C@H](Cc1ccc(O)cc1)NC(=O)[C@H](Cc1ccc(O)cc1)NC(=O)[C@@H](N)CSCc1ccccc1)C(=O)O [MMB_CYYKI] (H-C(Bn)YYKI-OH)
- EC50 (DegP^S210A [1]): 6800 nM
- Kd (DegP^S210A [2]; [6]): 6.32e-07 M

Molecule: CC[C@H](C)[C@H](NC(=O)[C@H](CCCCN)NC(=O)[C@H](Cc1ccc(O)cc1)NC(=O)[C@H](Cc1ccc(O)cc1)NC(=O)[C@@H](N)CSCc1cc(CSC[C@H](N)C(=O)N[C@@H](Cc2ccc(O)cc2)C(=O)N[C@@H](Cc2ccc(O)cc2)C(=O)N[C@@H](CCCCN)C(=O)N[C@H](C(=O)O)[C@@H](C)CC)cc(CSC[C@H](N)C(=O)N[C@@H](Cc2ccc(O)cc2)C(=O)N[C@@H](Cc2ccc(O)cc2)C(=O)N[C@@H](CCCCN)C(=O)N[C@H](C(=O)O)[C@@H](C)CC)c1)C(=O)O [TMB_CYYKI] (I: H-CYYKI-OH / II: H-CYYKI-OH / III: H-CYYKI-OH; linker I:1-II:1-III:1 via TBMB)
- EC50 (DegP^S210A [1]): 1700 nM
- MIC (E. coli imp4213; imp4213, Fig. 3a and Supplementary Fig. 6b (30 °C and 42 °C), 12 h, LB): 80 µM
- Kd (DegP^S210A [2]; [6]): 2.35e-07 M

Molecule: O=C(N[C@H](CO)[C@H](O)c1ccc([N+](=O)[O-])cc1)C(Cl)Cl [chloramphenicol, reference compound]
- number of viable cells (E.coli imp4213 strain): roughly at the same level
- MIC (E. coli imp4213; Escherichia coli, IMP4213): 2 µg/mL

Molecule: CO[C@H]1/C=C/O[C@@]2(C)Oc3c(C)c(O)c4c(O)c(c(/C=N/N5CCN(C)CC5)c(O)c4c3C2=O)NC(=O)/C(C)=C\C=C\[C@H](C)[C@H](O)[C@@H](C)[C@@H](O)[C@@H](C)[C@H](OC(C)=O)[C@@H]1C [rifampicin, reference compound]
- MIC (E. coli imp4213; Escherichia coli, IMP4213): 0.008 µg/mL

Molecule: CN(C)[C@@H]1C(O)=C(C(N)=O)C(=O)[C@@]2(O)C(O)=C3C(=O)c4c(O)cccc4[C@@](C)(O)[C@H]3C[C@@H]12 [tetracycline, reference compound]
- MIC (E. coli imp4213; Escherichia coli, IMP4213): 1 µg/mL

Molecule: DNYRGYSLGNWVSAAKFESNFNTQATNRNTDGSTDYGILQI [18–58, reference compound]
- binding stoichiometry N (DegP^S210A [2]): 0.47
- binding stoichiometry N (DegP^S210A [2]; listed as 18-58): 0.473
- ΔH (DegP^S210A [2]; [6]): -4.4 kcal/mol

Molecule: B1
- binding result [3]: binds

B2: MMB_CYYKI (peptide)
peptide: CYYKI
modifications: not fully specified (residue 1); printed as MMB_CYYKI
notes: also called compound with one CYYKI arm; one-arm compound; source: synthetic peptide (SPPS), reacted with benzyl bromide
- Kd (DegP^S210A [4]): 630 nM
- stoichiometry N (DegP^S210A [5]): 1.11

B3: TMB_CKYRKL (peptide)
peptide: CKYRKL
modifications: also: three arms joined via TMB (trimer), linker at 1 via TMB, other end not in the chain
- concentration of compound at maximal activation of reporter peptide (100 µM) cleavage by DegP; activation followed by inhibition at higher concentrations (DegP^WT (E. coli)): 100 µM

B4: 18–58 substrate peptide (peptide)
chain: GTGDNYRGYSLGNWVSAAKFESNFNTQATNRNTDGSTDYGILQI
- Kd (DegP^S210A [4]): 100 nM
- stoichiometry N (DegP^S210A (E. coli)): 0.47
